Test results as given in PubChem BioAssay AID743392 (Broad Institute, 2014).
The source made the active and inactive calls.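 Rule for the calls: active = phosphorylated Mpk1, a fungal stress kinase, cut by at least 20% below its untreated level on western blot; inactive = the rest.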

These molecules were tested on Mitogen-activated protein kinase MPK1 phosphorylation (Cryptococcus neoformans H99) (assay: inhibition of Mpk1 phosphorylation in C. neoformans, mechanism study for C. neoformans antifungal project, cell-based, single point, dry powder, imaging (AID 743392)). Details: C. neoformans H99, pMpk1 Western blot, 2 h; hits give high values; concentration not given here.

inhibition	SMILES
62%	CC(C)c1ccc(OCCn2c(=S)[nH]c3ccccc32)cc1
4% (inactive)	Cc1cccc(OCCn2c(=S)[nH]c3c(F)cccc32)c1
52%	Fc1cccc(OCCn2c(=S)[nH]c3ccccc32)c1
56%	S=c1[nH]c2ccccc2n1CCOc1ccccc1Cl
53%	Cc1ccc(C(C)C)c(OCCn2c(=S)[nH]c3ccccc32)c1
